Our source for the IC50, AC50 and EC50 values is ChEMBL document CHEMBL1201862, “PubChem BioAssay data set” (2004).

Test [1] deals with Photoreceptor-specific nuclear receptor (Homo sapiens, UniProt Q9Y5X4). Type of test: functional, cell-based.
The target in test [2] is T1, Calpain-2 catalytic subunit (Sus scrofa, UniProt P43367).
T1 sequence (P43367 whole entry): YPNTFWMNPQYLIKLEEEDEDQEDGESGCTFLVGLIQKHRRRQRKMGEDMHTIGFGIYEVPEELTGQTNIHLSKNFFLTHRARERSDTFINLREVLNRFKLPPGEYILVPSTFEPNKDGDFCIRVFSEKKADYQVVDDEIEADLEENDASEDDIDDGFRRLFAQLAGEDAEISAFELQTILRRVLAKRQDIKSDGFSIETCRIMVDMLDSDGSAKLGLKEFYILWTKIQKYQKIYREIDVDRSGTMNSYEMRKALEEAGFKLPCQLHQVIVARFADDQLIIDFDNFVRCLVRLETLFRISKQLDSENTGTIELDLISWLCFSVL
Description: m-calpain protease blockers, concentration series – biochemical, fluorogenic peptide substrate, dose response (AID 1420). In kind it is functional.

Test [3] concerns the target T2, Low molecular weight phosphotyrosine protein phosphatase (Homo sapiens, UniProt P24666).
T2 sequence (P24666 whole entry): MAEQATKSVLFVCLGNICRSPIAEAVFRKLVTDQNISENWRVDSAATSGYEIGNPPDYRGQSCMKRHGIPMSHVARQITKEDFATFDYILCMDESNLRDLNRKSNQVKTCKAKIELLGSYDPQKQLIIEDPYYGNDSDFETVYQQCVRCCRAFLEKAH
In kind it is functional. As to conditions: read-out: IC50_Mean.

The target in test [4] is T2, Low molecular weight phosphotyrosine protein phosphatase. Type of test: functional. As to conditions: read-out: IC50_Mean. This is another data set of the same source.
A short description of test [5]: Fluorescence-based cell-based high throughput dose response assay for inhibitors of the interaction of nucleotide-binding oligomerization domain containing 2 (NOD2) and the receptor-interacting serine-threonine kinase 2 (RIPK2). As to conditions: Homo sapiens. In kind it is functional, Homo sapiens.
In another test the target is Beta Lactamase (Pseudomonas aeruginosa, UniProt Q932Y6). Kind of test: BLA reporter interference, concentration series – BLA reporter cells, FRET fluorescence, artefact control for NOD2-RIPK2 interaction inhibitor project, dose response (AID 651552). Type of test: functional, cell-based.
Beta Lactamase, sequence (Q932Y6 whole entry): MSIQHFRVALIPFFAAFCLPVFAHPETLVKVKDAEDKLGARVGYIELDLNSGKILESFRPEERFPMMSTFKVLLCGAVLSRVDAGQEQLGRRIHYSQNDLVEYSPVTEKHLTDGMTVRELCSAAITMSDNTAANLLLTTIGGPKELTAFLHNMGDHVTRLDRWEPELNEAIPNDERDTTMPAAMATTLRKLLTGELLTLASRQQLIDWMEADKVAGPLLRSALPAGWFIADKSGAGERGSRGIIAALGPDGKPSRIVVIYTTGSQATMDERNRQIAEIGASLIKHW
Test [6] in a line: decrease of insulin promoter-GFP reporter – imaging, high-content screening, mouse beta cells (AID 1628). Type of test: functional. As to conditions: MIN6.
The subject of a further test is INS1. Kind of test: INS-1E survival protection against cytokine death – cell-based, luminescence, retest, dose response (AID 449756).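 Also: cell death triggered by IL-1 beta plus TNF-alpha plus IFN-gamma mixture; protective hits raise ATP signal compared with cytokine alone wells.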 In kind it is functional. As to conditions: Rattus norvegicus.
A short description of test [7]: MIN6 cell viability loss – mouse insulinoma, cytotoxicity control, dose response (AID 2122).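 Also: confirmatory high-throughput counterscreen run to flag cytotoxic compounds.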 Type of test: functional.
Test [8] addresses Hepatocyte nuclear factor 4-alpha (Homo sapiens, UniProt P41235). In kind it is functional, cell-based.
Test [9] is described as follows: Luminescence Cell-Based Dose Response HTS to Identify Activators of Luciferase Translation or Activity in H4 […] Cells. [Related pubchem assays: 1829 (Project Summary), 1814 (Primary HTS)]. Type of test: functional.
Test [10] in a line: Luminescence Cell-Based Dose Confirmation HTS to Identify Activators of 5'UTR Stem-Loop Driven Alpha-Synuclein mRNA Translation in H4 Neuroglioblastoma Cells. [Related pubchem assays: 1829 (Project Summary), 1814 (Primary HTS)]. In kind it is functional.
The target of test [11] is T3, RNA-binding protein pos-1 (Caenorhabditis elegans, UniProt G5EF15).
T3 sequence (G5EF15 whole entry): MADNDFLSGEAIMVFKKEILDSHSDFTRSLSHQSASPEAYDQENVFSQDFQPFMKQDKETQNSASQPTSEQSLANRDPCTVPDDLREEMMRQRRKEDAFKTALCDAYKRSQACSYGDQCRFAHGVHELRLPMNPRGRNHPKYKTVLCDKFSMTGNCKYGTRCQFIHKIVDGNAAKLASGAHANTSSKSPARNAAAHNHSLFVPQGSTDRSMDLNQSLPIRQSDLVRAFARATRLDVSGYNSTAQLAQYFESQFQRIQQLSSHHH
Description: disruptors of C. elegans POS-1 RNA interaction – biochemical, fluorescence polarization, dose response (AID 1964).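 Also: purified POS-1 fused to maltose binding protein made in E. coli; potency of compounds blocking POS-1 binding to fluorescent RNA.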

The target of test [12] is T4, Sentrin-specific protease 1 (Homo sapiens, UniProt Q9P0U3).
T4 sequence (Q9P0U3 whole entry): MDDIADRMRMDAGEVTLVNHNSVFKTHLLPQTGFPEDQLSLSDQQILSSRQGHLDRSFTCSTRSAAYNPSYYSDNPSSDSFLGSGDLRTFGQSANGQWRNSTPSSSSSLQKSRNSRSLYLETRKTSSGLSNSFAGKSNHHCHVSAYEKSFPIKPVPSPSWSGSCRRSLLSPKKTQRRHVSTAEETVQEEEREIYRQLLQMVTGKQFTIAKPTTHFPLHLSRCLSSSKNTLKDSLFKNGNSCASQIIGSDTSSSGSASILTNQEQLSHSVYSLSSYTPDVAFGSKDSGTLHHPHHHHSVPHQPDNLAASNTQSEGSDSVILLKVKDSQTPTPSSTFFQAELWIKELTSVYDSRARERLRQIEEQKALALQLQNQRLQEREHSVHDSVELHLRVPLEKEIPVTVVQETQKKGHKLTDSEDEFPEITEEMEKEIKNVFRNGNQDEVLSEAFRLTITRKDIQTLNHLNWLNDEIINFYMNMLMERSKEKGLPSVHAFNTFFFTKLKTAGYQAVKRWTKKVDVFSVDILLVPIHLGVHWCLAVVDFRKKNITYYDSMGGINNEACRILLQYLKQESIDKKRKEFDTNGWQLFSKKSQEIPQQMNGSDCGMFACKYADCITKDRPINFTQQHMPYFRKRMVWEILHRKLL
Description: SENP1 catalytic domain blockers, concentration series – biochemical, kinetic FRET, dose response (AID 651697). In kind it is functional. Particulars: read-out: IC50_Mean.

For test [13], the target named is T5, Zinc finger protein mex-5 (Caenorhabditis elegans, UniProt Q9XUB2).
T5 sequence (Q9XUB2 whole entry): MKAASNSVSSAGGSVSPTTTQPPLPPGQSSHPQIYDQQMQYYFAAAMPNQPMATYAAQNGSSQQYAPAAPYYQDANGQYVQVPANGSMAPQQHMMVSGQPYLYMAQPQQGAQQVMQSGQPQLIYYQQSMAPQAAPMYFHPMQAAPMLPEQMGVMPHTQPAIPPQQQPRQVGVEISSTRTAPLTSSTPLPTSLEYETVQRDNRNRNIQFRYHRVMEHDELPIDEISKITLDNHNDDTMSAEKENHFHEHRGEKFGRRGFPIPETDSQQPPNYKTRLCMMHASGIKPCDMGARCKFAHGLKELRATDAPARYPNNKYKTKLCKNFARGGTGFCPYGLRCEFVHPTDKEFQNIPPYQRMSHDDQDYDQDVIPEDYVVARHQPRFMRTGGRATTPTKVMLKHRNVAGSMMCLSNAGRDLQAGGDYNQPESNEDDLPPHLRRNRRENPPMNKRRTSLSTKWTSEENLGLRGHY
Description: potency of MEX-5 RNA-binding blockers – biochemical, C. elegans, fluorescence polarization, dose response (AID 1960).

In a further test the test system is H4. Description: Luminescence Cell-Based Dose Response HTS to Identify Activators of 5'UTR Stem-Loop Driven Prion Protein mRNA Translation in H4 Neuroglioblastoma Cells. [Related pubchem assays: 1829 (Project Summary), 1814 (Primary HTS)]. In kind it is functional. Particulars: Homo sapiens.
Test [14] deals with T6, Fatty acid synthase (Homo sapiens, UniProt P49327). Kind of test: inhibition of human FAS-TE enzyme activity – biochemical, endpoint fluorescence intensity, uHTS hits, dose response (AID 624327).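 Also: fluorescence from hydrolysis of an O-methyl fluorescein acyl ester substrate by the enzyme.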 Type of test: functional.
T6 sequence (P49327 whole entry): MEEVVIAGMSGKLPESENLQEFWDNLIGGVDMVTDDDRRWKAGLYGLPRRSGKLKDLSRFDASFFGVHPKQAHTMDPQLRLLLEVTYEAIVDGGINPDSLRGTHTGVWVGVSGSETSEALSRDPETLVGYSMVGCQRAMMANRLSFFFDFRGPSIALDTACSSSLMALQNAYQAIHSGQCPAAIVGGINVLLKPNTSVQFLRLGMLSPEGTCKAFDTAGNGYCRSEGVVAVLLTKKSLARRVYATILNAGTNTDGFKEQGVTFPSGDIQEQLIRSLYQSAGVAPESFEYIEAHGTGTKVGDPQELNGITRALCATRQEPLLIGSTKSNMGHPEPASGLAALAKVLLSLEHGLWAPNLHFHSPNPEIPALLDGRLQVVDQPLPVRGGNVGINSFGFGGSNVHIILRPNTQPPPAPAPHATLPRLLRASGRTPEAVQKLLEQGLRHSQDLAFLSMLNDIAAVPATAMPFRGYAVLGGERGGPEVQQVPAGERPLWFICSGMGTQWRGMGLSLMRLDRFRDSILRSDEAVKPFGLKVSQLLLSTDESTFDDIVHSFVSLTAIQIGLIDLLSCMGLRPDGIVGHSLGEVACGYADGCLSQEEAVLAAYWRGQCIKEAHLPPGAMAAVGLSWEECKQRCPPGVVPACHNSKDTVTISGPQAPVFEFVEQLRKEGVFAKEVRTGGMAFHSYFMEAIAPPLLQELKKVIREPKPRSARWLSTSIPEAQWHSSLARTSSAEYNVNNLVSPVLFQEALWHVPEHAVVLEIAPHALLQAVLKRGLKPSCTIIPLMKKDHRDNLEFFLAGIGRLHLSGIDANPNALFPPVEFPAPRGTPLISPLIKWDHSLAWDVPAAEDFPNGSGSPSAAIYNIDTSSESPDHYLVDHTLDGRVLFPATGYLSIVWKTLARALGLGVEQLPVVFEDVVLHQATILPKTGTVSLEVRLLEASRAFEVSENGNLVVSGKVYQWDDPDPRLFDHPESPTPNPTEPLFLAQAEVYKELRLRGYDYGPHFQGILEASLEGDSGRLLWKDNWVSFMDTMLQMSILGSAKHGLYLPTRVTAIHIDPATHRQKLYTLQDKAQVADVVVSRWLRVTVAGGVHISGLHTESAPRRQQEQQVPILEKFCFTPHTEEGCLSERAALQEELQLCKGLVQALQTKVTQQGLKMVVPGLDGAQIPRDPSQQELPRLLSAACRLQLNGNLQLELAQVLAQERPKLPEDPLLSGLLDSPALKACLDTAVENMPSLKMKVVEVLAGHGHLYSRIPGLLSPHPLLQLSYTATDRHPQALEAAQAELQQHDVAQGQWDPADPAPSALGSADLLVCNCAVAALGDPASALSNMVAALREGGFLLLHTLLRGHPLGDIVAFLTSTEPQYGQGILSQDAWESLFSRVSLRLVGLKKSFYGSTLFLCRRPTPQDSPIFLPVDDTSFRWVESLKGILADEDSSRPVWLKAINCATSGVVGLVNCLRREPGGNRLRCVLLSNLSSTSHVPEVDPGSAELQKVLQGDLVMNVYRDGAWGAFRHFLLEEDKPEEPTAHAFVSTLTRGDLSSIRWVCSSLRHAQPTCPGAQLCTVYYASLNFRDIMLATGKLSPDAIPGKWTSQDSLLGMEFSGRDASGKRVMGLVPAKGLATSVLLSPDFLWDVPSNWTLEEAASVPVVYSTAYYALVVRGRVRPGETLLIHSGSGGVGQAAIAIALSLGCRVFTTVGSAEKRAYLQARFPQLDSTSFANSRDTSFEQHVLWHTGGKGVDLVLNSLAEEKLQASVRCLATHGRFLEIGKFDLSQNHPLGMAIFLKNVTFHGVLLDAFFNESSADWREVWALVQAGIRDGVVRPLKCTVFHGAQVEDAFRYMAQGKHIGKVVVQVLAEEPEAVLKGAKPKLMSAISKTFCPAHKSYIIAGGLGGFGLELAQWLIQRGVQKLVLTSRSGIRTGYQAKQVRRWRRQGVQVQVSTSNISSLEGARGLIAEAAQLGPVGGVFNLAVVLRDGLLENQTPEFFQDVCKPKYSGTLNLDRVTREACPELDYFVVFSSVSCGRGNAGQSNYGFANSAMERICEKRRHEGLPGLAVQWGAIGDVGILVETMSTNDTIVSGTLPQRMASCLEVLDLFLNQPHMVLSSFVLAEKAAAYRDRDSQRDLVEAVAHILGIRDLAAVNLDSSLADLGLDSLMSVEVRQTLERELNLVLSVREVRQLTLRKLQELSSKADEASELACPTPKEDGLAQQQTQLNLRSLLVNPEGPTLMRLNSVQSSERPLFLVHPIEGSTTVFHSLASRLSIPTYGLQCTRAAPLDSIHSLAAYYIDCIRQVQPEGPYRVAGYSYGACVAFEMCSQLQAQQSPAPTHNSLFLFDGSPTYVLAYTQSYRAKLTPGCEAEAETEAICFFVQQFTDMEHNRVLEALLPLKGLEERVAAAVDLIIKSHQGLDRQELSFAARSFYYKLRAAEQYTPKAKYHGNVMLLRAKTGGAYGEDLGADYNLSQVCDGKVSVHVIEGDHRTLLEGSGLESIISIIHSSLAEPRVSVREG
The target in test [15] is T6, Fatty acid synthase. Kind of test: inhibition of human FAS-TE enzyme activity – biochemical, kinetic fluorescence intensity, dose response (AID 624326).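 Also: rate of fluorescence rise from hydrolysis of a fluorogenic O-methyl fluorescein ester substrate.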 In kind it is functional.
Test [16] has as its target T7, Short transient receptor potential channel 4 (Mus musculus, UniProt Q9QUQ5).
T7 sequence (Q9QUQ5 whole entry): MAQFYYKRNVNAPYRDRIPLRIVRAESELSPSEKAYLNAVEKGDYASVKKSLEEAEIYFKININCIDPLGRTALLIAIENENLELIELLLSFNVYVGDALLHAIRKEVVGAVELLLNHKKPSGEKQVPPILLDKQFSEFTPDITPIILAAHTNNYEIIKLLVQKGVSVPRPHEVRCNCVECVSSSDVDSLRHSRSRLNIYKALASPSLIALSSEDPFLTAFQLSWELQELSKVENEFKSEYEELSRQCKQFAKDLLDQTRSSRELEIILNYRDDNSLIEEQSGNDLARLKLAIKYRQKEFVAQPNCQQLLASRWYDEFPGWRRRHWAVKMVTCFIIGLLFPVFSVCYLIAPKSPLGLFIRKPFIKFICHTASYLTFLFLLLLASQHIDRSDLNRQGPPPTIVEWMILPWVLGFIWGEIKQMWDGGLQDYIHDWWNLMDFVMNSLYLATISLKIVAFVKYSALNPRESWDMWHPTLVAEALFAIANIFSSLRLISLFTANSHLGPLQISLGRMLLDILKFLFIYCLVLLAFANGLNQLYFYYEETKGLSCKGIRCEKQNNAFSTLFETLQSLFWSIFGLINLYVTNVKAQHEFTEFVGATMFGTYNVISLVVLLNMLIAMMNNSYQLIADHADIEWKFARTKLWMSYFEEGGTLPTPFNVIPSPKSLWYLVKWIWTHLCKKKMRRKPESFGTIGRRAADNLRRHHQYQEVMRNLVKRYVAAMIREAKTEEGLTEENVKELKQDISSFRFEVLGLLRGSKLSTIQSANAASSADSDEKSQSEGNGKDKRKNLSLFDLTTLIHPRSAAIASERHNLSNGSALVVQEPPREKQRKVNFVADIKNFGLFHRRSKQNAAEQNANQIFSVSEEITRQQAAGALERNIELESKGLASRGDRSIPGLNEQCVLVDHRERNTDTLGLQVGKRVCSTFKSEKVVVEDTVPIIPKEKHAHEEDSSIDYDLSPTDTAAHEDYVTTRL
Description: block of DAMGO-driven TRPC4 calcium entry – cell-based, HEK293 TRPC4/mu-opioid, Fluo-4 calcium, dose response (AID 434942).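 Also: potency of inhibitors blocking the TRPC4 calcium response.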 Type of test: functional.

For test [17], the target named is T8, High affinity choline transporter 1 (Homo sapiens, UniProt Q9GZV3).
T8 sequence (Q9GZV3 whole entry): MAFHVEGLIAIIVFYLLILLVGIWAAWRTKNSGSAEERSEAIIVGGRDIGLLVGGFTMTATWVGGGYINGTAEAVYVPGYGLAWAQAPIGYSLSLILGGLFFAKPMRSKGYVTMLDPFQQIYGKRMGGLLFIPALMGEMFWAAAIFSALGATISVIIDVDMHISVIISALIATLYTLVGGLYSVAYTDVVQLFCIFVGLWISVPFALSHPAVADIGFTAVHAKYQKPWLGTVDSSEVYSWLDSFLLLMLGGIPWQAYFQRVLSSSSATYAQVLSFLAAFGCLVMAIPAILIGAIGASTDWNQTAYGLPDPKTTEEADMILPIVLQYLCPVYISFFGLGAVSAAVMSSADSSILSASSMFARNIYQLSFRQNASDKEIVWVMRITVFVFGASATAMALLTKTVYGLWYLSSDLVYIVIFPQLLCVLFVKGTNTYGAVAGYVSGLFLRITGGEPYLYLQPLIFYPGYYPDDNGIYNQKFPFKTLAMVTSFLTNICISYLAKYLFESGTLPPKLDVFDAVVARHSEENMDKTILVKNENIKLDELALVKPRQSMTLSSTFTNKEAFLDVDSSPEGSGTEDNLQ
Kind of test: human choline transporter blockers, potency – cell-based, 10-point CRC, membrane potential dye, dose response (AID 588401).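 Also: membrane potential dye fluorescence of choline-evoked depolarization via CHT.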 Type of test: functional.

Test [18] addresses T8, High affinity choline transporter 1. Kind of test: human choline transporter blockers, potency – cell-based, 5-point CRC, membrane potential dye, dose response (AID 504840). Type of test: functional.
For test [19], the target named is Ras and Rab interactor 1/Tyrosine-protein kinase ABL1 (Homo sapiens, UniProt P00519+Q13671). In kind it is functional.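 Also: biochemical TR-FRET dose-response test measuring inhibition of binding between Rin1 and Abl proteins.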
Ras and Rab interactor 1/Tyrosine-protein kinase ABL1, sequence (P00519 whole entry): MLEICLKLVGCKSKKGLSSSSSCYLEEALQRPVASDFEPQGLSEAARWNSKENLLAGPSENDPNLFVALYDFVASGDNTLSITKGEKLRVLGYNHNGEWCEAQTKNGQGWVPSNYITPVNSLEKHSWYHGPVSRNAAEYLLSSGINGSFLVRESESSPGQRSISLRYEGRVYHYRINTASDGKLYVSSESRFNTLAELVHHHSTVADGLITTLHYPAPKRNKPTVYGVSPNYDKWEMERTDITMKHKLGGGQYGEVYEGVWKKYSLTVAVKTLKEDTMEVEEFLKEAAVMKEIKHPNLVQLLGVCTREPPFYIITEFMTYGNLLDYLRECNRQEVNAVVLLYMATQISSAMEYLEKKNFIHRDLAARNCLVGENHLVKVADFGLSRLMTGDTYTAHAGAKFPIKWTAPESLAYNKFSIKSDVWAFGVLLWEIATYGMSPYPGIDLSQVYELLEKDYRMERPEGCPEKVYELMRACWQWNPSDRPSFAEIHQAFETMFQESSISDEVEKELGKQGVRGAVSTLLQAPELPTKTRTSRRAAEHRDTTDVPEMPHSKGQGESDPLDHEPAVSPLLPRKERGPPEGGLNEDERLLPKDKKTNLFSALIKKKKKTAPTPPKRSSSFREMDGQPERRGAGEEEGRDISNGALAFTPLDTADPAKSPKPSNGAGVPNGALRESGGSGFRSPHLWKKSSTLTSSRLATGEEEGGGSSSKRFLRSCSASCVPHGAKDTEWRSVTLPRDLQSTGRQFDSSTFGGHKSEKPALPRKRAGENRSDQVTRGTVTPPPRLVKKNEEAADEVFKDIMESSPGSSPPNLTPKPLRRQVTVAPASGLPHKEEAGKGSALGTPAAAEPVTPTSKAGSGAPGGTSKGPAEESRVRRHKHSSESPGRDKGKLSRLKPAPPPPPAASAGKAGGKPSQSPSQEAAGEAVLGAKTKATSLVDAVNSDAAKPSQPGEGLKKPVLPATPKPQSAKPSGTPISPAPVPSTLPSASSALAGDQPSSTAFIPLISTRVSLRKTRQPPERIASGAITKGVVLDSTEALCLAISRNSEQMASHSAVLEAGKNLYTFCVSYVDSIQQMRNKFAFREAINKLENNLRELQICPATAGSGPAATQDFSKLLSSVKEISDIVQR
Ras and Rab interactor 1/Tyrosine-protein kinase ABL1, sequence (Q13671 whole entry): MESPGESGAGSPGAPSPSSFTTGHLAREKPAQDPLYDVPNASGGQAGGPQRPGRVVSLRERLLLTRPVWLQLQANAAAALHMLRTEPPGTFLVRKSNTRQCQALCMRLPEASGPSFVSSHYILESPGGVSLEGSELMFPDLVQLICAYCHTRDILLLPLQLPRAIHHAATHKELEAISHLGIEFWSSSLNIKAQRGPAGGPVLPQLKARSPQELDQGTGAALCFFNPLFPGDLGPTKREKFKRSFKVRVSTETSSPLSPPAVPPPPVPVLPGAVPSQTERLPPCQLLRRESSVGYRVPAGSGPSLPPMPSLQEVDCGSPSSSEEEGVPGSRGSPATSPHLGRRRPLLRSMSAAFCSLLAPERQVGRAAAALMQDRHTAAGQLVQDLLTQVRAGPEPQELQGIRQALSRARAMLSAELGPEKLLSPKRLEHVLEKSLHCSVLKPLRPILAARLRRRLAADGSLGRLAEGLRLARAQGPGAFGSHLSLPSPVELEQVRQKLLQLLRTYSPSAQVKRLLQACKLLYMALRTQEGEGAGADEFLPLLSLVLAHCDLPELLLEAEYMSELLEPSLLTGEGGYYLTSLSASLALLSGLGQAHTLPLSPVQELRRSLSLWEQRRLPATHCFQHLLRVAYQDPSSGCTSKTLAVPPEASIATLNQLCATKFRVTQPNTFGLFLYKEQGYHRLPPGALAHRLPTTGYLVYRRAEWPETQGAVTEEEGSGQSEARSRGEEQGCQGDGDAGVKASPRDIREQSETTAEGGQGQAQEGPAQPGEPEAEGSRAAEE

The structures appear in SMILES notation. Calls of active or inactive are those of the source.

Photoreceptor-specific nuclear receptor, sequence (Q9Y5X4 whole entry): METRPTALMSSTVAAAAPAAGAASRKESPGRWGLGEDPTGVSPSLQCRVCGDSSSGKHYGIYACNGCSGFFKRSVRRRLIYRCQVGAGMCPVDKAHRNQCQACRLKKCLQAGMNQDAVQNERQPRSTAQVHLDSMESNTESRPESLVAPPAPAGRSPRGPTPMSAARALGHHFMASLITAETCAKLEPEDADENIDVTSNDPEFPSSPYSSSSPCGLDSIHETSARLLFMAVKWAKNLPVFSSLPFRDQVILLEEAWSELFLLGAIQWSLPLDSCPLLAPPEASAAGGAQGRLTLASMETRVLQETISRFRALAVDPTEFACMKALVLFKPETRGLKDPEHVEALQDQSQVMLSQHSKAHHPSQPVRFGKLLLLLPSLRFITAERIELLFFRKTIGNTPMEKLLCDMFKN

As to `O=c1c(Cl)c(N2CCN(c3ccc(F)cc3)CC2)cnn1C12CC3CC(CC(C3)C1)C2`, the IC50 is 1.93 µM (active) in test [1] and > 50 µM (not active) in [2].
Turning to `CN(C)c1nc(N)nc(/C(C#N)=C/C2CC3C=CC2C3)n1` (configuration not stated), the IC50 in test [3] is 10.6 µM (active); in test [4], 25.2 µM (inactive).
Take `Cc1cc(N2CCN(C)CC2)ccc1NC(=O)c1c2c(nc3ccccc13)CCN(Cc1ccccc1)C2`: the IC50 in test [5] was 11 µM (inactive); at Beta Lactamase, 12.3 µM (inactive); in [6], 1.37 µM (active); in test [7], 1.05 µM (active). Also, in the test with INS1, the half-maximal activity concentration (AC50) is 4.71 µM (active).
In the case of `CC(C)(C)NC(=O)C(C1CC1)n1c(=O)c(-c2ccco2)nc2ccccc21` (configuration not stated), the IC50 in test [8] is 1.72 µM (active).
For `COc1cccc(Nc2c(Nc3cccc(OC)c3)c(=O)c2=O)c1`, the IC50 in [3] is 18.4 µM (active); in [4], 10.4 µM (active).
Regarding `COc1ccc(P2(=O)Nc3ccccc3N2)cc1`, the half-maximal effective concentration (EC50) in test [9] was 10.5 µM (active); in test [10], > 120 µM (not active); in test [11] it was > 300 µM (not active); in test [13], 103 µM (active); in the test on H4, 7.44 µM (active). In addition, in test [12], the IC50 is 74.3 µM (inactive).
For `CCOC(=O)[C@]12Cc3cc(Cl)ccc3[C@H]1N(C1CCCCC1)C(=O)c1ccccc12`, the IC50 in test [5] was 1.45 µM (active); at Beta Lactamase, 19.9 µM (inactive); at Fatty acid synthase [14], 6.4 µM (active); at Fatty acid synthase [15], 4.57 µM (active).
Regarding `CC1CCCCN1CCCNC(=O)c1nn(C)c2c1CSc1ccccc1-2` (configuration not stated), the EC50 in [16] was 4.22 µM (active). The IC50 in [17] was 10.6 µM (active); in [18] it was 5.6 µM (active).
With `COc1ccc(CCNC(=O)CSc2nc(C)nc3c2c(=O)n(C)c(=O)n3C)cc1OC`, in [19], the IC50 is 13.9 µM (inactive).
For `CCCCCc1c(-c2ccc(OC)c(OC)c2)ncn1CCc1ccccc1OC`, the IC50 in [1] was 7.43 µM (active).
